The values below come from article PMC7930471, “Targeting HIF2α-ARNT hetero-dimerisation as a novel therapeutic strategy for pulmonary arterial hypertension” (The European Respiratory Journal, 2021).

For experiment [1], the target named is T1, rat HIF2α (Rattus norvegicus, UniProt Q9JHS1).
T1 construct: gene Epas1; PAS-B domain (rat HIF2α-B, made from the human HIF2α-B expression vector by mutating T262L, I265V and I326V)
The experiment in a line: isothermal titration calorimetry (iTC200), purified PAS-B domain titrated into PT2567. The format is binding.

The target in experiment [2] is T2, HIF2α (Homo sapiens, UniProt Q99814).
T2 construct: gene EPAS1; PAS-B domain (human HIF2α-B)
T2 sequence (Q99814 240-350 limits assumed): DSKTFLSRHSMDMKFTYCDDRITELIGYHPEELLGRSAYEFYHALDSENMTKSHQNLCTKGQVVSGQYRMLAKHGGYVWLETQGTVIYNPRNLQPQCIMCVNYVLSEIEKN
The description is as above. The format is binding.

T1 sequence (Q9JHS1 240-350 limits assumed): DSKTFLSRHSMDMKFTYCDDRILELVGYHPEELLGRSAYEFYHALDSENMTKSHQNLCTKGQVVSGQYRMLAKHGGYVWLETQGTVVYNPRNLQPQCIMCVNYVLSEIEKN

As for PT2567, the Kd in experiment [1] turned out to be 0.029 µM; in experiment [2], 0.03 µM.
